Measurements as given in PubChem BioAssay AID449764 (Southern Research Specialized Biocontainment Screening …, 2010).

These compounds were tested on Mycobacterium tuberculosis H37Rv growth inhibition, no glycerol (assay: Mycobacterium tuberculosis H37Rv growth inhibition, no glycerol, confirmatory dose response (AID 449764;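 note: growth read after 7 days of incubation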)). Conditions: measured here: IC90 growth inhibition.

Which IC90 does the source give for `Cc1nc2ccccc2c2nc3ccccc3n12` here?
The IC90 was 48.4 µM.

How did the IC90 turn out when `CCCN(CCC)CCNC(=O)c1cc2c(-c3ccc(Cl)cc3)nn(C)c2s1` was run?
Its IC90 is 27.1 µM.

With `COc1ccc(NC(=O)/C(Cl)=C(/Cl)S(=O)Cc2ccc(C)cc2)cn1` (configuration not stated) as the compound, how does the IC90 read?
The IC90 was 0.36 µM.

`CCCCCCCCNC(C)C(O)c1ccc(SC(C)C)cc1` (configuration not stated) was tested. Which IC90 did it give?
The IC90 was 26.5 µM.

Which IC90 does the source give for `NC(=S)NNc1ccc(Cl)c(Cl)c1` here?
Its IC90 is 12.1 µM.

How did the IC90 turn out when `COc1cc(N)c(Cl)cc1C(=O)N[C@H]1CCN(CCCOc2ccc(F)cc2)C[C@H]1OC` was run?
The IC90 was 89 µM.

How did the IC90 turn out when `O=C(CSc1ccc(Cl)cc1)N1CCC(c2nc3ccccc3s2)CC1` was run?
The IC90 was 68.3 µM.

Which IC90 does the source give for `C#CCOC(=O)/C(=C/C=C/c1ccccc1)NC(=O)c1ccccc1` here?
The IC90 was 56.6 µM.

`COc1cccc(C2C3=C(N=c4s/c(=C\c5cccc(O)c5)c(=O)n42)c2ccccc2CC3)c1OC` (configuration not stated) was tested. Which IC90 did it give?
Its IC90 is 25.6 µM.

For `Oc1ccc(C[C@H]2CNCCN2CCCCC2CCCCC2)cc1`, which IC90 is on record?
The IC90 was 55.3 µM.

With `Cc1ccc(C(=O)C2CCN(CC(=O)Nc3nc(C)cs3)CC2)cc1` as the compound, how does the IC90 read?
The IC90 was 53.6 µM.

`Cc1ccc(N2CCN(C(=O)c3cn(CC4CCCCC4)nn3)C(C)C2)cc1` (configuration not stated) was tested. Which IC90 did it give?
Its IC90 is 50.3 µM.

With `COc1cccc(COC(=O)c2ccc3c(=O)n4c(nc3c2)CCC4)c1OC` as the compound, how does the IC90 read?
Its IC90 is 59 µM.

With `CN(C(=O)c1cccc(Nc2ccc(-c3ccc4c(c3)OCCO4)nn2)c1)C1CCCCC1` as the compound, how does the IC90 read?
Its IC90 is > 100 µM.

For `c1ccc(-c2ccc(C(c3ccccc3)n3ccnc3)cc2)cc1` (configuration not stated), which IC90 is on record?
The IC90 was 26.4 µM.

For `O=C(NCCc1ccc(Cl)cc1)c1ccc(CS(=O)Cc2ccc(Cl)cc2)o1` (configuration not stated), which IC90 is on record?
Its IC90 is 52.1 µM.

`Cc1ccc(C)c(N2CCN(C(=S)Nc3ccc4nc(N5CCN(C)CC5)cc(C)c4c3)CC2)c1` was tested. Which IC90 did it give?
Its IC90 is 55.9 µM.

With `Cc1ccc2c(c1)C1C[N+](C)(CC(=O)c3ccc(Cl)cc3Cl)CCC1N2C(=O)c1ccc(F)cc1` (configuration not stated) as the compound, how does the IC90 read?
The IC90 was 41 µM.

Which IC90 does the source give for `COc1ccc(N(CC(=O)Nc2ccccc2C(N)=O)S(=O)(=O)c2ccc(C)c([N+](=O)[O-])c2)cc1` here?
The IC90 was > 100 µM.

How did the IC90 turn out when `CCn1cc([N+](=O)[O-])c(C(=O)N2N=C(c3ccc4ccccc4c3)CC2c2ccccc2O)n1` (configuration not stated) was run?
The IC90 was > 100 µM.

How did the IC90 turn out when `Cc1ccc(C(=O)/C=C/C(=O)c2ccc(C)cc2)cc1` was run?
The IC90 was 5.87 µM.

With `CCOc1cccc(/C=C/c2ccc3cccc(O)c3n2)c1O` as the compound, how does the IC90 read?
Its IC90 is > 100 µM.

How did the IC90 turn out when `Cc1ccc(CNc2ccc3c(c2)ncn3C(C)(C)C)cc1` was run?
The IC90 was 28.8 µM.

How did the IC90 turn out when `Cc1[nH]n(S(=O)(=O)Cc2ccccc2)c(=O)c1N=Nc1ccccc1Cl` was run?
Its IC90 is 28.7 µM.

How did the IC90 turn out when `CCOC(=O)c1ccc(-n2c(CCC(=O)O)ccc2-c2cccs2)cc1` was run?
The IC90 was 23.6 µM.

How did the IC90 turn out when `Cc1cc(/C=C\c2ccc3cc(N(C)C)ccc3[n+]2C)c(C)n1-c1ccccc1` was run?
Its IC90 is 4.49 µM.

For `COC(=O)CSc1nnc([C@H](CC(C)C)NC(=O)OC(C)(C)C)o1`, which IC90 is on record?
Its IC90 is 29.9 µM.

`CCOC(=O)C(C)Oc1ccc(NC(=O)C(Cl)(Cl)Cl)cc1` (configuration not stated) was tested. Which IC90 did it give?
The IC90 was 5.86 µM.

How did the IC90 turn out when `CC1(c2nnc(-c3ccncc3)o2)CC(c2ccccc2)=NO1` (configuration not stated) was run?
The IC90 was > 100 µM.

`CCCn1c(=N)n(CC(=O)c2ccc(OCC(=O)OC)cc2)c2ccccc21` was tested. Which IC90 did it give?
The IC90 was 35.9 µM.

With `Cc1ccc(OCc2cc(C(=O)N(C)Cc3cnc4ccccn34)no2)cc1C` as the compound, how does the IC90 read?
The IC90 was > 100 µM.

For `O=C(CCl)N1CCCC1c1ccc2c(c1)OCCO2` (configuration not stated), which IC90 is on record?
The IC90 was 14.1 µM.

How did the IC90 turn out when `COc1cc2ccccc2cc1C(=O)Nc1ccc(Cc2ccncc2)cc1` was run?
The IC90 was 27.3 µM.

With `CCOC(=O)c1sc2nc(C)nc(SC(C)C(=O)N(C)c3ccccc3)c2c1C` (configuration not stated) as the compound, how does the IC90 read?
Its IC90 is 44.6 µM.

Which IC90 does the source give for `CN1CCc2cc3c(c4c2C1Cc1ccccc1-4)OCO3` (configuration not stated) here?
Its IC90 is 3.03 µM.

With `COc1ccc(C)c2sc(N(CCN(C)C)C(=O)/C=C/c3cccs3)nc12` as the compound, how does the IC90 read?
Its IC90 is 36.1 µM.

With `c1ccc(C[C@H]2CN=C(Nc3ccccc3)N2CCCC2CCCC2)cc1` as the compound, how does the IC90 read?
Its IC90 is 44.5 µM.

With `CCOc1ccc2nc(NC(=O)C34CC5CC(CC(NC(C)=O)(C5)C3)C4)sc2c1` as the compound, how does the IC90 read?
The IC90 was 38.4 µM.

With `CC(C)OC(=O)CSc1nc2ccccc2s1` as the compound, how does the IC90 read?
Its IC90 is 36.7 µM.

With `CCCCCCC[N+](CC)(CC)CCCCc1ccc(Cl)cc1` as the compound, how does the IC90 read?
The IC90 was 49.8 µM.

How did the IC90 turn out when `CCCC(NCC(O)COc1ccc(-c2ccccc2)cc1)c1ccccc1` (configuration not stated) was run?
Its IC90 is 14.7 µM.

`CC1=NN(c2ccccc2)C(=O)C1C(=O)c1ccccc1` (configuration not stated) was tested. Which IC90 did it give?
Its IC90 is 78 µM.

`CC(=O)Nc1sc2c(c1-c1nc3ccccc3s1)CCN(C(C)C)C2` was tested. Which IC90 did it give?
Its IC90 is 11.2 µM.

Which IC90 does the source give for `CCc1cc(OCCCCNCc2ccccc2)ccc1Cl` here?
The IC90 was 36 µM.

`COc1nc(-c2ccccc2)cc(-c2ccc(OC)c(OC)c2)n1` was tested. Which IC90 did it give?
The IC90 was > 100 µM.

How did the IC90 turn out when `CC(=O)n1cc(N(C(=O)CCl)c2ccc(Cl)cc2)c2ccccc21` was run?
Its IC90 is 6.76 µM.

For `CCCCCCCCNC(=O)CCNC(=O)c1ccc(C(C)(C)C)cc1`, which IC90 is on record?
Its IC90 is 41.9 µM.

With `Cc1ccc(NC(=O)c2sccc2-n2cccc2)c(C)c1` as the compound, how does the IC90 read?
The IC90 was > 100 µM.

For `CCOC(=O)C1=NOC(CNc2ncc(C(F)(F)F)cc2Cl)C1` (configuration not stated), which IC90 is on record?
The IC90 was 14.4 µM.

`O=C(c1ccc(Cl)cc1)N1N=C(c2ccccn2)CC1(O)C(F)(F)F` (configuration not stated) was tested. Which IC90 did it give?
The IC90 was > 100 µM.

`Clc1ccc2c(c1)CCc1cccnc1C2=C1CCNCC1` was tested. Which IC90 did it give?
The IC90 was 38.8 µM.

How did the IC90 turn out when `CCC1=C(OC(=O)N(CC)CC)N2C(=O)OC(=NCCc3c[nH]c4ccccc34)[C@]2(Cc2ccccc2)[C@H]2C1=CC[C@H]1C(=O)NC(=O)[C@H]12` was run?
Its IC90 is 45.7 µM.

Which IC90 does the source give for `CC(/C=N/NC(=O)c1cc(-c2ccc3ccccc3c2)n[nH]1)=C\c1ccco1` here?
Its IC90 is 66.8 µM.

Which IC90 does the source give for `COc1cc2c(cc1OC)CN(CCC(=O)c1ccc(Br)cc1)CC2` here?
The IC90 was 26.7 µM.

How did the IC90 turn out when `COc1ccc(C2CC(=O)c3cnc(Nc4cc(C)cc(C)c4)nc3C2)cc1` (configuration not stated) was run?
Its IC90 is 45.2 µM.

Which IC90 does the source give for `Cc1nc2ccc(NC(=O)c3ccc([N+](=O)[O-])cc3[N+](=O)[O-])cc2s1` here?
Its IC90 is > 100 µM.

`CC(Oc1cc2oc(=O)c3c(c2cc1Cl)CCCC3)C(=O)NCc1ccccn1` (configuration not stated) was tested. Which IC90 did it give?
Its IC90 is > 100 µM.

For `FC(F)(F)c1cc(CO[C@@H]2CCCN[C@@H]2c2ccccc2)cc(C(F)(F)F)c1`, which IC90 is on record?
The IC90 was 38.2 µM.

For `OC(CNCC(c1ccc(Cl)cc1Cl)c1c[nH]c2ccccc12)c1ccccc1` (configuration not stated), which IC90 is on record?
The IC90 was 26.2 µM.

With `O=C(Nc1ccc([N+](=O)[O-])cc1)Nc1ccc(OC(F)F)c(Cl)c1` as the compound, how does the IC90 read?
Its IC90 is 3.63 µM.

How did the IC90 turn out when `O=C(Nc1nc(-c2cc(Cl)sc2Cl)cs1)c1cccs1` was run?
The IC90 was > 100 µM.

With `O=C(COC(=O)C1=COCCO1)NCc1ccc(Cl)cc1` as the compound, how does the IC90 read?
The IC90 was > 100 µM.
